From US10231985B2, “Compounds and compositions comprising such compounds for the prevention or treatment of dyslipidaemias” (CENTRE NATIONAL DE LA RECHERCHE SCIENTIFIQUE, priority 2013, dated 2019) come the findings set out here.

For assay [1], the system named is phospholipids of the cellular membranes (hem1Δ strain). Briefly: Fatty acid content of cellular phospholipids (lipid extraction, ESI-MS). Format: cell-based, Saccharomyces cerevisiae. Here is the method: The hem1Δ strain is grown in liquid medium (YPG^A, YPG^+, or YPG^++200 μM compound to be tested) under aerobic conditions, with shaking and at 28° C. for 7 hours, from an initial cell concentration of 2×10^6 cells/ml. At the conclusion of the culture, 10^8 cells are collected in order to carry out a total lipid extraction. After having suspended the cells in 1 ml of distilled water at 4° C., 500 μl of glass beads (Ø 0.6 mm) are added and the whole then undergoes 3 sequences of 20 seconds at 5000 rpm in a shaker (the tubes are kept on ice between each of the 3 sequences). The cell lysate then obtained, supplemented with bead-washing solution (1 ml), is then transferred to a 40 ml glass tube (Corex™) before carrying out the lipid extraction using a 2:1 (v/v) methanol:chloroform ratio. First, 6 ml of methanol is added and the whole is vortexed for 30 seconds and then incubated for 15 minutes at 65° C. Once the mixture cools to room temperature, 3 ml of chloroform is added and then the whole is vortexed again for 30 seconds before allowing the extraction to proceed for 16 hours. Later, the sample is centrifuged for 12 minutes at 10000 g before transferring the supernatant to a new Corex™ tube. After adding 2 ml of chloroform and then 4 ml of distilled water, the whole is vortexed for 30 seconds and then centrifuged for 8 minutes at 3000 g. After removing the resulting upper phase, the lower organic phase is collected in a glass hemolysis tube. Finally, the solvent is evaporated under a stream of nitrogen at 80° C. in order to obtain the total cellular lipid samples.
The total cellular lipid samples are resuspended in 1 ml of dichloromethane while being vortexed for 30 seconds. The whole is deposited on a silica column (BOND ELUT-SI, 100 mg 1 ml) preconditioned successively with 3 ml of methanol and then 2 ml of dichloromethane. The fraction retained by the column is then washed successively with 2 ml of dichloromethane and then 3 ml of acetone. Finally, 2 ml of a 50:45:5 (v/v/v) chloroform/methanol/water mixture is deposited on the column and the phospholipids thus eluted are collected in a glass hemolysis tube. The solvent is evaporated under nitrogen at 80° C. in order to obtain the cellular phospholipid samples.
Once resuspended in 100 μl of the mixture Mix^− (2:1:1 (v/v/v) isopropanol/acetonitrile/water+1% (v/v) triethylamine) or the mixture Mix^+ (2:1:1 (v/v/v) isopropanol/acetonitrile/water+1% (v/v) formic acid), the samples are analyzed by electrospray ionization mass spectrometry (ESI-MS) in negative or positive mode, respectively, and the results obtained are used to analyze the fatty acid content of the various phospholipid species.

The test system of assay [2] is unfolded protein response (UPR). In words: Test of UPR triggering (4xUPRE-lacZ, β-galactosidase activity) in hem1Δ yeast. The conditions noted are these: 200 μM, liquid medium inducing SFA accumulation. Format: cell-based, Saccharomyces cerevisiae. The source says:
A plasmid construction bearing a fusion gene, corresponding to the coding sequence of the lacZ gene placed under the control of an artificial promoter containing four UPR elements (UPRE), was introduced into a hem1Δ yeast strain, as described by Pineau et al. (2009). During UPR induction, the transcription factor Hac1p/XBP1p is activated and binds to the fusion gene UPRE, leading to the transcription of the lacZ gene. As lacZ encodes β-galactosidase, the level of UPR induction is thus measured by detecting the corresponding enzyme activity. The hem1Δ yeast strain was grown in liquid medium inducing SFA accumulation with no other addition (0), or in the same medium supplemented with 200 μM oleic acid, OAG or LPA, as indicated.
The hem1Δ strain transformed by the plasmid pPW344 [2μ URA3 4×UPRE-lacZ (Patil et al., 2004)] is grown in liquid medium (YPG^A, YPG, or YPG+200 μM compound to be tested), under aerobic conditions, with shaking at 28° C. for 7 hours, from an initial cell concentration of 2×10^6 cells/ml. At the conclusion of the culture, 10^8 cells are collected in order to quantify the β-galactosidase (β-gal) activity resulting from the expression of the lacZ transgene (in the case of UPR activation). […] For each sample, β-gal activity (U) is calculated using the formula U=(1000×[OD420 nm−(1.75×OD550 nm)])/(t×V×OD600 nm), expressed in arbitrary units.

For a further assay, the system named is MIN6 pancreatic β-cells. Briefly: Monitoring of insulin maturation (Western blot, anti-insulin). Format: cell-based, mouse. The conditions noted are these: MIN6, 400 μM palmitic acid 48 hours, 200 μM compound during final 24 hours. The protocol: Pancreatic β-cells, MIN6, were grown under control conditions (0) or, alternatively, in the presence of an exogenous source of 400 μM palmitic acid (P), for 48 hours, as described by Boslem et al. (2011), in order to generate lipointoxication conditions. During the final 24 hours of growth, 200 μM OAG, LPA or mannide monooleate was added or not as mentioned.
In the manner of that described above for the lipointoxication of BRIN-BD11 cells, the MIN6 cell line is grown in complete DMEM-High Glucose medium […], supplemented with 10% (v/v) fetal calf serum (FCS), 15 mM HEPES, 100 U/ml penicillin and 100 μg/ml streptomycin, and lipointoxication is induced by exposure to 400 μM palmitic acid, coupled to BSA (0.92% (w/v) final), for 48 hours, with or without the addition of the compound of interest (see Boslem et al., 2011). The cells are then collected and a Western blot is carried out as indicated above, using anti-insulin antibodies in order to follow the maturation of proinsulin to insulin.

`CCCCCCCC/C=C\CCCCCCCC(=O)OC[C@@H](O)COP(=O)(O)O` [LPA, 1-oleoyl-sn-glycerol-3-phosphate]: the “Effect on fatty acid composition of membrane phospholipids” value in assay [1] is reported as “act directly on lipid content”. In assay [2], the “UPR induction level (β-galactosidase activity)” value is “reduce the unfolded protein response (UPR)”. In addition, the “Maturation of proinsulin to insulin” value with MIN6 pancreatic β-cells is given as “only mannide monooleate restores”.
The like results for `CCCCCCCC/C=C\CCCCCCCC(=O)OC[C@H](CO)OC(C)=O` [OAG, 1-oleoyl-2-acetyl-sn-glycerol] were, in that order, “without restoring a normal diunsaturated phospholipid composition”, “reduce the unfolded protein response (UPR)” and “only mannide monooleate restores”.
